Data reported in patent publication US20030198614A1, “Hair growers” (priority 2000, published 2003).

Tests used:
[1] = Hair regrowth inducing effect test by cell cluster-accompanied culture method; type: cell-based; details: Homo sapiens, Human dermal papilla cell, 48 h, 2 days, Alamer Blue fluorescence, relative to negative control, read-out: Relative respiration level (%)
Experimental: The hair regrowth inducing effect was evaluated using, as an index, an increase in respiration level of a cell cluster formed under the coexistence of a normal human outer root sheath cell and a normal human dermal papilla cell.
Normal human dermal papilla cell (DP): A DP obtained by a primary culture from a head hair was subcultured three times in a 10% FBS-supplemented DMEM medium in a 75 cm^2 incubation flask coated with Type I collagen, and then stored while being frozen in a liquid nitrogen using a cell cryopreservation solution (Cellbanker II: DIA-IATRON).
Normal human outer root sheath cell (ORS): An ORS obtained by a primary culture from a head hair was subcultured three times in a SFM medium in a 75 cm^2 incubation flask coated with Type I collagen, and then stored while being frozen in a liquid nitrogen using Cellbanker II.
The DP and ORS cells stored as frozen were thawed, washed with an ice-cooled SFM medium, dispersed in the same medium and subjected to an accurate cell density measurement using a hemocytometer. Each cell density was adjusted at 5×10^4 cells/ml accurately, and the cell dispersions in equal volumes were combined under cooling with ice. 80 μl aliquots of the combined cell suspending SFM medium were inoculated into individual wells of a 96-well microplate (Sumilon celltight, spheroid 96U plate), and incubated for 2 days. The cell count in a single well upon inoculation was 2,000 cells for each of DP and ORS, thus 4,000 cells in total.
Each 80 μl of a test material-supplemented William's E(+) medium (William's E medium supplemented with 10 μg/ml transferrin, 10 ng/ml hydrocortisone, 10 μg/ml insulin and 10 ng/ml sodium selenite) was added to each well and incubated further for 2 days.
The test material-supplemented William's E(+) medium added to each well was prepared by dissolving the test material in ethanol at a concentration of 10 mM or 100 mM and adding to William's E(+) medium at 0.2% each. Accordingly, the final concentration of the test material in each well was 10 μM or 100 μM, and each final concentration of ethanol was 0.1%.
As a negative control, 80 μl of William's E(+) medium containing 0.2% ethanol was added (final concentration of ethanol was 0.1%).
Alamer Blue, SFM medium and William's E(+) medium were mixed in 2:1:1 ratio, warmed at 37° C. and then 40 μl aliquots were added to individual wells and allowed to react for 6 hours at 37° C. After completion of the reaction, 100 μl aliquots were taken from individual wells, and transferred to a white 96-well plate for fluorescence measurement (Opaque Plate).
A fluorometer (Labsystems Fluoroskan II) was used at the excitation wavelength of 544 nm and the fluorescent wavelength of 590 nm to measure the fluorescence intensity of each well, from which the fluorescent intensity of a cell-free reaction mixture (i.e., the reaction mixture treated similarly using a cell-free SFM medium) was subtracted to obtain a respiration level under each condition. From thus obtained respiration level, a relative respiration level(%) was calculated according to the following equation.
Relative respiration level(%)={Respiration level (test material)}/{Respiration level (negative control)}×100

[2] = test system: C3H/He mice, whose hair cycle was at the telogen stage; test: Hair regrowth effect test; type: in vivo; details: 0.1 ml once a day on shaved back, after 24 days, average of 6 mice
Experimental: The Compounds 1 to 5 described above were used as test materials. Each test material was dissolved in 70% ethanol aqueous solution and the solution was subjected to the application as a sample (test material concentration: 50 nM and 100 nM). 70% Ethanol was also used as a control sample.
The hair regrowth effect test was performed using C3H/He mice, whose hair cycle was at the telogen stage according to the method of Ogawa et. al. (Normal and Abnormal Epidermal Differentiation, Edited by M. Seiji and I. A. Bernstein, Pages 159-170, 1982, Todai Shuppan).
Namely, 6 mice were used in a group and their hair of the regions of back was shaved by hair clippers. 0.1 ml of sample was applied on the shaved regions once a day. After 24 days, the hair regrowth area was measured and the hair regrowth area rate was calculated based on the hair regrowth area with respect to the shaved area. The results are shown in Table 1 (expressed by average values).

[3] = test system: telogen hair roots of male subjects; test: Trichogram test; type: in vivo, human; details: 50 nM in 70% ethanol, 2 ml twice a day on scalp for 6 months, 10 male subjects
Experimental: As test materials, Compound 1 and Compound 2 were employed. Each test material was dissolved in 70% ethanol similarly to Experiment 1 to obtain a sample (test material concentration: 50 nM).
The hair roots of hairs pulled out before and after the use of each sample were examined by a microscope to determine the telogen hair root count on the basis of the hair root morphology, and the increase or decrease in the rate was employed as an index for evaluating the hair growth promoting effect.
Specifically, each sample was applied onto the scalp of each of 10 male subjects twice a day in a 2 ml aliquot each time continuously for 6 months. 100 hairs per subject were pulled out immediately before the application and immediately after completion of 6-month application to count the telogen hair roots. The rate (%) of the number of the subjects whose telogen hair root after the application was decreased by 20% or more, changed by ±20% or increased by 20% or more with respect to that before the application was calculated.

[4] = test system: cultured human trichoepithelial cell; test: Trichoepithelial cell growth promoting effect test; type: cell-based; details: 1.0×10^-6 mol/L, 2 days, Alamer Blue; negative control = 0, positive control (insulin + hydrocortisone) = 1
Experimental: According to the method described in JP-A-2000-63242, a cultured trichoepithelial cell of a human scalp was used to measure a trichoepithelial cell growth promoting effect.
From a human scalp obtained as a by-product of a surgical operation, a hair follicle at a anagen stage in a hair cycle was isolated mechanically under the observation by a stereoscopic microscope. This hair follicle at a anagen stage was treated in a Dulbecco's modified MEM (DMEM) supplemented with 1000 U/ml dispase and 0.2% collagenase for 30 minutes at 37° C. Adipose tissues, connective tissue root sheath and dermal papilla were removed therefrom using the tip of a syringe needle and the hair follicle was treated in a phosphate buffer containing 0.05% EDTA for 5 minutes at 37° C.
Subsequently, the hair follicle was placed on a culture dish coated with Type I collagen, and incubated in a KGM medium (serum-free keratinocyte growth medium). After incubation for 4 to 5 days, the culture medium was exchanged upon ensuring the adhesion of the hair follicle on the bottom face of the culture dish and the growth of the trichoepithelial cell, and thereafter the culture medium was exchanged every 2 days.
After the cell thus proliferated was treated in a phosphate buffer containing 0.05% trypsin and 0.02% EDTA for 5 minutes at 37° C., the reaction was quenched using an equal volume of 0.1% trypsin inhibitor and the cell was recovered by centrifugation (800×g, 5 minutes).
Subsequently, the cell was suspended in the serum-free culture medium described above, and inoculated at the density of 5000 cells/cm^2 onto a culture dish coated with Type I collagen. The culture medium was exchanged every 2 days until the cell became subconfluent. After treating the cell again in the phosphate buffer containing 0.05% trypsin and 0.02% EDTA for 5 minutes at 37° C., the reaction was quenched using an equal volume of 0.1% trypsin inhibitor and the cell was recovered by centrifugation (800×g, 5 minutes). The human trichoepithelial cell thus obtained was adjusted at the concentration of 100,000 cells/ml with a cell cryopreservation solution (Cellbanker: DIA-IATRON) added thereto, and dispensed into each freezing tube as a 100,000 cells (1 ml), which was then stored as being frozen. The cell counts described above were calculated using a hemocytometer.
After inoculating the trichoepithelial cell obtained in the step described above into a culture flask, the cell was treated with a phosphate buffer containing 0.25% trypsin and 0.02% EDTA. The reaction was quenched with 0.1% trypsin inhibitor, and then the mixture was centrifuged at 1,500 rpm for 5 minutes. The supernatant was removed, and the precipitated cell pellet was combined with a KGM medium to prepare a cell suspension.
The cell suspension in the KGM medium was inoculated to a Type I collager-coated 96-well microplate (Falcon) at 3,000 cells (0.2 ml)/well and allowed to stand for about 20 minutes at room temperature until the cell went down onto the bottom. Then, the cell was cultured for 1 day in an incubator in the presence of 5% CO2 at 37° C., whereby obtaining an intended cultured human trichoepithelial cell.
A test material and DMSO were added to a KGM medium at the final concentrations of 1.0×10^−6 mol/L and 0.1%, respectively.
Negative control: DMSO was added to a KGM medium at the final concentration of 0.1%.
Positive control: Insulin and hydrocortisone were dissolved in DMSO, which was then added to a KGM medium. The final concentrations of insulin, hydrocortisone and DMSO were 5 μg/ml, 0.5 μg/ml and 0.1%, respectively.
The KMG medium in the 96-well microplate employed for preparing the cultured human trichoepithelial cell in Step A described above was exchanged with a test material-supplemented medium or a control medium (200 μl/well), and the incubation was continued for 2 days in the presence of 5% CO2 at 37° C. […]

[5] = test system: human hair follicle in the anagen stage; test: Investigation of hair shaft elongation (organ culture of human hair follicle); type: cell-based; details: 1.0×10^-5 mol/L, 5-day incubation, 9 hair follicles per group
Experimental: A hair follicle in the anagen stage was isolated from a human scalp under a stereoscopic microscope observation, washed with “a medium prepared by adding penicillin, streptomycin and fungizone to Williams E medium (Gibco)” (hereinafter referred to as a (−) medium) and then examined for its length.
A medium obtained by supplementing the (−) medium further with 10 ng/ml hydrocortisone, 10 μg/ml insulin, 10 ng/ml sodium selenite and 10 μg/ml transferring (hereinafter ter referred to as a (+) medium) was dispensed in an aliquot of 1 ml per well into a 24-well microplate. The hair follicle described above was precipitated therein and incubated overnight at 37° C. in the presence of 5% CO2 (preincubation).
The elongation of the hair shaft in a hair follicle was determined by inspecting the microplate described above visually using an inverted microscope with a micrometer attached thereto.
A DMSO solution of a test material was added to a (−) medium for preparation. The final concentrations of the test material and DMSO were 1.0×10^−5 mol/L and 0.1%, respectively.
Only DMSO was added to a (−) medium at the final concentration of 0.1% for preparation.
The culture medium of the hair follicle groups described above was replaced each with the test materialcontaining medium or negative control medium, and the incubation was continued further for 5 days at 37° C. in the presence of 5% CO2. The length of each hair after 5-day incubation was measured, and the means were compared with each other.

Compound	activity at 10 µM [1]	activity at 100 µM [1]	Hair regrowth area rate ([2]; 50 nM in 70% ethanol)	Hair regrowth area rate ([2]; 100 nM in 70% ethanol)	Rate of telogen hair root: 20% or more decrease (rate of subjects) [3]	Rate of telogen hair root: 20% or more increse (rate of subjects) [3]	Rate of telogen hair root: ±20% (rate of subjects) [3]	Cell growth promoting index [4]	Mean of hair shaft elongation [5]
CCCCCCCCCCCCCCCCOC(CO)COC (stereo not shown) [Compound 1, 2-Hexadecyloxy-3-methoxy-1-propanol]	139%	157%	70%	93%	70%	0%	30%	1.3	1.7 mm
CCCCCCCCCCCCCCCCOCC(O)COC (stereo not shown) [Compound 2, 1-Hexadecyloxy-3-methoxy-2-propanol]	108%	122%	65%	88%	60%	10%	30%	1.5	1.5 mm
CCCCCCCCCCCCCCCCOCCCO [Compound 3, 3-Hexadecyloxy-1-propanol]	106%	108%	15%	74%	–	–	–	1.4	1.6 mm
CCCCCCCCCCCCCCCCOCC(COC)OC (stereo not shown) [Compound 4, 1-(2,3-Dimethoxypropoxy)hexadecane]	127%	134%	68%	78%	–	–	–	1.4	1.9 mm
CCCCCCCCCCCCCCCCCCC(CO)OC (stereo not shown) [Compound 5, 2-Methoxy-1-eicosanol]	124%	130%	70%	76%	–	–	–	1.2	1.4 mm
CCCCCCCCCCCCCCCCCC(=O)OCC(CO)OC (stereo not shown) [Compound 6, 3-Hydroxy-2-methoxypropyl stearate]	101%	102%	–	–	–	–	–	1.3	1.7 mm
CCCCCCCCCCCCCCCCOC(CO)CO [Compound 7, 2-Hexadecyloxy-1,3-propanediol]	122%	129%	–	–	–	–	–	1.5	1.2 mm
CCCCCCCCCCCCCCCCCCOCC(C)(C)CO [Compound 8, 2,2-Dimethyl-3-octadecyloxy-1-propanol]	106%	112%	–	–	–	–	–	1.2	1.7 mm
CCCCCCCCCCCCCCCCCCC(O)CO (stereo not shown) [Compound 9, 1,2-eicosanediol]	130%	132%	–	–	–	–	–	1.2	1.5 mm
